Target: mu opioid peptide (MOP) receptor (mouse brain) (Mus musculus, UniProt P42866)
Sequence (P42866 whole entry): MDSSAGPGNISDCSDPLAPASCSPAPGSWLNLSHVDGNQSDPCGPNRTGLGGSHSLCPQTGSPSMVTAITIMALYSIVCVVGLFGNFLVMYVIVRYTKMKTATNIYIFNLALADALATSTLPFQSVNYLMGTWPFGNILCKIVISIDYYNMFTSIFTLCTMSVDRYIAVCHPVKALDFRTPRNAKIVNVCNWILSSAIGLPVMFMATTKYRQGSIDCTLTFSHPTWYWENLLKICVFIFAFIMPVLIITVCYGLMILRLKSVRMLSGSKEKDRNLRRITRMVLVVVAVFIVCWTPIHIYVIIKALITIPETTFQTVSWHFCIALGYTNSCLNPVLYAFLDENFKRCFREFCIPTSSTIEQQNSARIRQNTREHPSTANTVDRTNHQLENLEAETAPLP

`CCC(=O)C(CC(C)N(C)C)(c1ccccc1)c1ccccc1` (stereo not shown) [methadone] showed an IC50 of 11.7 ± 1.2 nM.

Reference: paper PMC2952445 (The journal of pain : official journal of the American Pain …, 2009)
